US4603139A, “Bicycle compounds, processes for their preparation and pharmaceutical formulations containing compounds” (Burroughs Wellcome Co., priority 1981, dated 1986)
Converted amounts (≈) assume the structure as drawn. Where a name gives a salt, the structure may show the parent alone.

Assays:
[1] = system: right ventricular papillary muscle; experiment: in vitro inotropic activity (isolated right ventricular papillary muscle); type: cell-based, guinea-pig; details: 75% increase in basal contractile force (Fc), carazolol 5×10^-8 M present, 34° C., cumulative additions; for EC75: Cavia porcellus, read-out: Potency for 75% increase Fc lying within the range
Procedure: The heart was rapidly excised and washed with Krebs-Henesleit solution containing the β-adrenoceptor antagonist carazolol (5×10^-8 M) and gassed with 95% O2 : 5% CO2 at 34° C. The heat was transferred to a petri dish containing the same buffer kept at a constant temperature (34° C.) throughout the dissection. Fresh buffer was used for each dissection and washings were discarded after use. A single right ventricular papillary muscle was employed from each heart; the tendinous end ligated to a stainless steel hook and the lower end ligated and cut away from the ventricle wall and attached to a perspex clamp such that the tissue was in contact with a platimum punctate electrode. The stainless steel hook was suspended from a Grass FT.03 transducer which recorded isometric tension. The preparation was placed in a 20 ml pyrex organ bath containing buffer gassed with 95% O2 : 5% CO2 and maintained at 34° C. 500 mg loading tension was applied to the preparation. Stimulation was effected by rectangular pulses of Imsec duration at 1.5 Hz at 30% above the threshold voltage (1-5 volts) by a SRI stimulator. The transducer inputs were coupled to a potentiometric recording device by a 6-channel Grass transducer coupler. After 90 minutes, preparations unable to sustain uniform contractions beyond this period were rejected.

[2] = system: anaesthetised, open-chest beagles; experiment: in vivo inotropic and vasodilatory activity; details: Canis lupus familiaris, bolus intravenous, 0.003-3.0 mg/kg; for ED50: increase in dp/dt of left ventricular pressure; for ED30: vasodilatory activity
Procedure: The compounds of Examples 1,2 and 21 were tested in comparison with amrinone and […]. […] This is accompanied by a dose-related increase in aortic blood flow, and a fall in systemic blood pressure (see Table below).

ischaemic heart = experiment: ventricular vulnerability to arrythmias in the ischaemic heart; type: in vivo
[3] = system: ADP-induced platelet aggregation; experiment: in vitro inhibition of platelet aggregation; type: cell-based, rhesus monkey; details: Macaca mulatta, 1 min, platelet-rich plasma, 37° C., read-out: ID50 (dose causing 50% inhibition of platelet aggregation)
Procedure: Blood was freshly collected into siliconized (Siloclad; Clay Adams) plastic (Sterlin Ltd.) tubes containing trisodium citrate (3.15%; 0.1 volume with 0.9 volume blood) and centrifuged (200 g for 15 min) at room temperature. The platelet-rich plasma (PRP) was withdrawn into plastic containers and kept at room temperature. Inhibition of platelet aggregation was determined in a Born-type aggregometer by incubating aliquots (0.5 ml) of the PRP for 1 min at 37° C. with or without compound A prior to addition of sufficient adenosine diphosphate (ADP). Dose-inhibition curves were constructed for each compound and the ID50 (dose causing 50% inhibition) was calculated as the dose required to reduce the aggregation to 50% of its control amplitude. The ID50 for compound A is 1 mg/ml (approximately).

myocardial injury = myocardial injury following selective ligation of the coronary artery in vivo
phosphodiesterase = phosphodiesterase inhibitory activity; type: biochemical; details: 100 μM, 1 mM and 10 mM; 3H-cAMP 5 uM; guinea pig heart homogenate; 37° C., 30 minutes
Procedure: The determination of phosphodiesterase inhibitory activity was effected by a procedure based on that of Thompson and Appleman (Biochme., 10, 311 (1971)). ^3 H-cAMP (5 uM) is incubated at 37° C. for 30 minutes with the 1000Xg supernatent of a 10% (w/v) homogenate of guinea pig heart in 50 mM-Tris/HCL pH7+5 mM-mgCI2 in either the presence or the absence of the compound of Example 21 which, in the former case, is dissolved in Tris buffer to give final concentrations of 100 uM, 1 mM and 10 mM. Phosphodiesterase enzyme in the homogenate hydrolyses ^3 H-cAMP to ^3 H-5'-AMP which is further converted to ^3 H-adenosine by a 5'-nucleotidase added to the incubation mixture. After a period of incubation unchanged ^3 H-cAMP is removed by adding ion exchange resin to the mixture and centrifuging. The ^3 H in the supernatent is assayed by liquid scintillation counting and gives a quantitative measure of adenosine formation (i.e. cAMP hydrolysis). Comparison of the ^3 H-adenosine formed in the presence and absence of test compound gives a measure of the PDE-inhibitory activity of the compound.

[4] = system: ADP-induced platelet aggregation; experiment: ex vivo inhibition of platelet aggregation; type: in vivo; details: Macaca mulatta, iv, anaesthetised rhesus monkey, read-out: effective dose causing 50% inhibition of aggregation
Procedure: Rhesus monkeys of both sexes (7.3-9 kg, body weight) were sedated with phencyclidine, subsequently anaesthetised with thiopentone and maintained with sodium pentobarbitone. Catheters were placed in the left femoral artery to record blood pressure and in the left femoral vein for administration of drugs. A further catheter was placed in the contralateral femoral artery for the removal of blood samples. Heart rate was recorded from ECG (standard lead II). A left ventricular catheter was introduced via the left carotid artery to measure left ventricular pressure. […] Rectal temperature of the anaesthetised monkey was maintained at 37°-38° C. via a heated table-pad.
Blood samples (3 ml) were withdrawn into syringes containing trisodium citrate (0.315% w/v final concentration), and spun for […]. The platelet rich-plasma was transferred to a Born-type aggregometer and incubated for 1 min (at 37° C.) prior to the addition of sufficient ADP to induce sub-maximal (1.5-3 μM) or near maximal (8-12 μM) aggregation. Inhibition of aggregation was calculated with reference to at least 2 control samples prior to intravenous infusion of compound A. The sequence of administration of compound A was randomized between experiments. The effective dose of compound A which caused 50% inhibition of aggregation is 1.0 mg/kg i.v. (approximately).

[5] = system: myocardial β-adrenoceptors; details: Brutsaert et al 1982; Pouleur et al 1982; cited from earlier work
[6] = system: myocardial phosphodiesterase; details: Diederan and Wiesenberger, 1981; cited from earlier work

Molecule: 2-(2-methylsulphinyl)-1H-imidazo[4,5-c]pyridine hydrochloride [Example 50]
- Potency for 75% increase Fc lying within the range [1]: > 10^-3 M

Molecule: Nc1cc(-c2ccncc2)c[nH]c1=O [Amrinone, reference compound]
- ED50 [2]: 1 mg/kg
- ED30 [2]: 2 mg/kg

Molecule: COc1ccc(-c2nc3cnccc3[nH]2)c(OC)c1 [Example 1, 2-(2,4-Dimethoxyphenyl)-1H-imidazo[4,5-c]pyridine]
- ED50 [2]: 0.13 mg/kg
- ED30 [2]: 0.24 mg/kg
- EC75 [1]: 0.1 to 1 mM

Molecule: COc1ccc(-c2nc3cnccc3[nH]2)cc1.Cl.Cl [Example 2, 2-(4-Methoxyphenyl)-1H-imidazo[4,5-c]pyridine dihydrochloride]
- ED50 [2]: 2 mg/kg
- ED30 [2]: 5.1 mg/kg

Molecule: COc1cc(-c2nc3cnccc3[nH]2)cc(OC)c1OC [Example 3, 2-(3,4,5-trimethoxyphenyl)-1H-imidazo[4,5-c]pyridine dihydrochloride]
- EC75 [1]: > 1 mM

Molecule: COc1ccccc1-c1nc2cnccc2[nH]1 [Example 7, 2-(2-methoxyphenyl)-1H-imidazo[4,5-c]pyridine hydrochloride]
- EC75 [1]: 0.1 to 1 mM

Molecule: COc1ccc(-c2nc3cnccc3[nH]2)cc1OC [Example 8, 2-(3,4-dimethoxyphenyl)-1H-imidazo[4,5-c]pyridine dihydrochloride]
- EC75 [1]: 0.01 to 0.1 mM

Molecule: COc1cc(Cl)ccc1-c1nc2cnccc2[nH]1 [Example 10, 2-(2-methoxy-4-chlorophenyl)-1H-imidazo[4,5-c]pyridine hydrochloride]
- EC75 [1]: 0.01 to 0.1 mM

Molecule: COc1cc([S+](C)[O-])ccc1-c1nc2cnccc2[nH]1 (stereo not drawn) [Example 21, 2-(2-Methoxy-4-methylsulphinylphenyl)-1H-imidazo[4,5-c]pyridine]
- ED50 [2]: 0.063 mg/kg
- ED30 [2]: 0.19 mg/kg
- effect on ventricular vulnerability to arrythmias (ischaemic heart): does not increase ventricular vulnerability to arrythmias
- IC50 [3]: ~1000 µg/mL (≈ 3.48 mM)
- effect on myocardial injury (myocardial injury): does not exacerbate myocardial injury
- PDE inhibitory activity (phosphodiesterase): no PDE inhibitory activity
- ED50 [4]: ~1 mg/kg
- EC75 [1]: 0.1 to 1 mM

Molecule: COc1ccc(-c2nc3cnccc3[nH]2)c([S+](C)[O-])c1 (stereo not drawn) [Example 22, 2-(2-Methylsulphinyl-4-methoxyphenyl)-1H-imidazo[4,5-c]pyridine hydrochloride]
- EC75 [1]: > 1 mM

Molecule: COc1cc([S+](C)[O-])ccc1-c1nc2cnccc2[nH]1.Cl (stereo not drawn) [Example 23, 2-(2-Methoxy-4-methylsulphinylphenyl)-1H-imidazo[4,5-c]pyridine hydrochloride]
- Potency for 75% increase Fc lying within the range [1]: 10^-4 -10^-3 M

Molecule: CSc1ccccc1-c1nc2cnccc2[nH]1 [Example 29, 2-(2-methylthiophenyl)-1H-imidazo[4,5-c]pyridine hydrochloride]
- EC75 [1]: 0.1 to 1 mM

Molecule: COc1cc(S(C)(=O)=O)ccc1-c1nc2cnccc2[nH]1 [Example 32, 2-(2-Methoxy-4-methylsulphonylphenyl)-1H-imidazo[4,5-c]pyridine]
- EC75 [1]: 0.1 to 1 mM

Molecule: COc1ccc(-c2nc3cnccc3[nH]2)cc1SC [Example 34, 2-(3-Methylthio-4-methoxyphenyl)-1H-imidazo-[4,5-c]pyridine dihydrochloride]
- EC75 [1]: 0.1 to 1 mM

Molecule: COc1ccc(-c2nc3cnccc3[nH]2)cc1[S+](C)[O-] (stereo not drawn) [Example 35, 2-(3-Methylsulphinyl-4-methoxyphenyl)-1H-imidazo[4,5-c]pyridine]
- EC75 [1]: > 1 mM

Molecule: COc1ccc(-c2nc3c[n+]([O-])ccc3[nH]2)c(OC)c1 [Example 38, 2-(2,4-Dimethoxyphenyl)-1H-imidazo[4,5-c]pyridineN^5-oxide hydrate]
- EC75 [1]: > 1 mM

Molecule: COc1ccc(-c2nc3ccncc3n2C)c(OC)c1 [Example 40, 3-Methyl-2-(2,4-dimethoxyphenyl)-1H-imidazo[4,5-c]pyridine]
- EC75 [1]: > 1 mM

Molecule: COc1ccc(-c2nc3cnccc3n2C)c(OC)c1 [Example 41, 1-Methyl-2-(2,4-dimethoxyphenyl)-1H-imidazo[4,5-c]pyridine]
- EC75 [1]: > 1 mM

Molecule: COc1cc([S+](C)[O-])ccc1-c1nc2ncccc2[nH]1 (stereo not drawn) [Vardax, 2-[(2-methoxy-4-methylsulphinyl)phenyl]-1H-imidazo[4,5-b]pyridine, reference compound]
- contribution of myocardial β-adrenoceptor stimulation to positive inotropic stimulation [5]: at least part of the positive inotropic stimulation
- inhibition of myocardial phosphodiesterase [6]: effective inhibitor of myocardial phosphodiesterase
- ED50 [2]: 1 mg/kg
- ED30 [2]: 2.11 mg/kg
